# Experimental data from ChEMBL document CHEMBL1201862, “PubChem BioAssay data set” (2004).
#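 In this assay, cells in 96-well plates receive the compound at five concentrations for 48 hours. Endpoints are linearly interpolated between the surrounding concentrations. The concentration for 50% growth inhibition is given as GI50.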 Calls of active or inactive are those of the source. No stated cut-off is given here; in the data, active = GI50 up to about 1.1 µM and inactive = higher.
# Assays:
# Test in all cases: DTP human tumour cell line panel, 48 h
# OVCAR-3 = tested on: OVCAR-3
# M14 = tested on: M14
# UACC-257 = tested on: UACC-257
# CCRF-CEM = tested on: CCRF-CEM
# SW-620 = tested on: SW-620
# SF-539 = tested on: SF-539
# HT-29 = tested on: HT-29
# SK-MEL-2 = tested on: SK-MEL-2
# UO-31 = tested on: UO-31
# TK-10 = tested on: TK-10
# Malme-3M = tested on: Malme-3M
# NCI-H522 = tested on: NCI-H522
# A549 = tested on: A549
# SF-268 = tested on: SF-268
# SNB-19 = tested on: SNB-19
# CAKI-1 = tested on: CAKI-1
Compound,GI50 (OVCAR-3),GI50 (M14),GI50 (UACC-257),GI50 (CCRF-CEM),GI50 (SW-620),GI50 (SF-539),GI50 (HT-29),GI50 (SK-MEL-2),GI50 (UO-31),GI50 (TK-10),GI50 (Malme-3M),GI50 (NCI-H522),GI50 (A549),GI50 (SF-268),GI50 (SNB-19),GI50 (CAKI-1)
O=C(NCc1ccncc1)C1COc2cc(-c3cc(=O)c4ccccc4o3)ccc2O1 (centres undefined),> 100 µM (inactive),> 100 µM (inactive),> 100 µM (inactive),> 100 µM (inactive),> 100 µM (inactive),> 100 µM (inactive),> 100 µM (inactive),> 100 µM (inactive),> 100 µM (inactive),> 100 µM (inactive),> 100 µM (inactive),> 100 µM (inactive),> 100 µM (inactive),,,
C[C@]12CC[C@@H]3c4ccccc4CC[C@H]3[C@@H]1CC[C@@H]2O,> 100 µM (inactive),> 100 µM (inactive),> 100 µM (inactive),62.5 µM (inactive),> 100 µM (inactive),43.1 µM (inactive),,,39.7 µM (inactive),> 100 µM (inactive),44.2 µM (inactive),49.2 µM (inactive),99.3 µM (inactive),> 100 µM (inactive),> 100 µM (inactive),
CC(=O)NN1C(=O)C(Cc2ccccc2)c2ccccc21 (centres undefined),> 100 µM (inactive),> 100 µM (inactive),> 100 µM (inactive),> 100 µM (inactive),> 100 µM (inactive),> 100 µM (inactive),> 100 µM (inactive),> 100 µM (inactive),> 100 µM (inactive),> 100 µM (inactive),> 100 µM (inactive),,> 100 µM (inactive),> 100 µM (inactive),> 100 µM (inactive),> 100 µM (inactive)
CCOC(=O)C1CCCCN1C(=O)OCc1ccccc1 (centres undefined),> 100 µM (inactive),> 100 µM (inactive),> 100 µM (inactive),> 100 µM (inactive),> 100 µM (inactive),> 100 µM (inactive),> 100 µM (inactive),> 100 µM (inactive),99.8 µM (inactive),> 100 µM (inactive),,> 100 µM (inactive),> 100 µM (inactive),> 100 µM (inactive),> 100 µM (inactive),> 100 µM (inactive)
CCSc1nc(-c2ccc(OC)cc2)c(C#N)c(=O)n1C1OCC(OC(C)=O)C(OC(C)=O)C1OC(C)=O (centres undefined),,> 100 µM (inactive),> 100 µM (inactive),,> 100 µM (inactive),> 100 µM (inactive),> 100 µM (inactive),> 100 µM (inactive),> 100 µM (inactive),> 100 µM (inactive),> 100 µM (inactive),92 µM (inactive),> 100 µM (inactive),> 100 µM (inactive),> 100 µM (inactive),> 100 µM (inactive)
N#CC(/C(=N\NC(=O)c1ccncc1)C(=O)Nc1ccc([N+](=O)[O-])cc1[N+](=O)[O-])c1nc(-c2ccc(Br)cc2)cs1 (centres undefined),> 100 µM (inactive),> 100 µM (inactive),> 100 µM (inactive),> 100 µM (inactive),> 100 µM (inactive),> 100 µM (inactive),,> 100 µM (inactive),> 100 µM (inactive),> 100 µM (inactive),> 100 µM (inactive),,> 100 µM (inactive),> 100 µM (inactive),> 100 µM (inactive),> 100 µM (inactive)
CCC1CN2CCc3cc(OC)c(OC)cc3C2CC1CC1c2cc(OC)c(OC)cc2CCN1C(=O)C1CCCN1C(=O)OCc1ccccc1 (centres undefined),16.2 µM (inactive),17.1 µM (inactive),16.9 µM (inactive),,14.8 µM (inactive),18.7 µM (inactive),14.1 µM (inactive),17.2 µM (inactive),12.7 µM (inactive),19.5 µM (inactive),18.3 µM (inactive),,18.9 µM (inactive),17.1 µM (inactive),24.3 µM (inactive),20.3 µM (inactive)
CCOc1ccccc1NC(=O)C(=O)CC(=O)c1sc(Nc2nnc(-c3ccc(Cl)c(Cl)c3)o2)nc1C,77.8 µM (inactive),> 100 µM (inactive),98.9 µM (inactive),40.8 µM (inactive),33.5 µM (inactive),> 100 µM (inactive),> 100 µM (inactive),> 100 µM (inactive),> 100 µM (inactive),> 100 µM (inactive),> 100 µM (inactive),,> 100 µM (inactive),> 100 µM (inactive),> 100 µM (inactive),> 100 µM (inactive)
CCN(CC)C(=O)c1c(Cl)cc(N(CC)CC)oc1=O,> 100 µM (inactive),> 100 µM (inactive),> 100 µM (inactive),> 100 µM (inactive),> 100 µM (inactive),> 100 µM (inactive),> 100 µM (inactive),> 100 µM (inactive),> 100 µM (inactive),> 100 µM (inactive),> 100 µM (inactive),> 100 µM (inactive),> 100 µM (inactive),> 100 µM (inactive),> 100 µM (inactive),
COC1(OC)CC2C(=O)N(Cc3ccccc3)C1C=C2S(=O)(=O)c1ccccc1 (centres undefined),14.8 µM (inactive),16.1 µM (inactive),16.9 µM (inactive),14.9 µM (inactive),15.2 µM (inactive),17 µM (inactive),18.5 µM (inactive),,25 µM (inactive),25.1 µM (inactive),20.4 µM (inactive),13.9 µM (inactive),21.9 µM (inactive),37 µM (inactive),24 µM (inactive),
CC(=O)Nc1ccccc1-c1nc2ccccc2nc1-c1ccccc1,> 100 µM (inactive),> 100 µM (inactive),> 100 µM (inactive),> 100 µM (inactive),> 100 µM (inactive),> 100 µM (inactive),> 100 µM (inactive),> 100 µM (inactive),54.7 µM (inactive),,,,> 100 µM (inactive),,> 100 µM (inactive),> 100 µM (inactive)
CC(C)(C)c1ccc2c(c1)S(=O)(=O)Nc1ccccc1NS(=O)(=O)c1cc(C(C)(C)C)ccc1OCCOCCOCCO2,> 100 µM (inactive),> 100 µM (inactive),> 100 µM (inactive),> 100 µM (inactive),> 100 µM (inactive),40 µM (inactive),> 100 µM (inactive),> 100 µM (inactive),> 100 µM (inactive),> 100 µM (inactive),33.5 µM (inactive),,> 100 µM (inactive),48.4 µM (inactive),> 100 µM (inactive),97.9 µM (inactive)
CC(C)C1CC2C(=O)N(c3ccccc3)C(=O)C2c2[nH]c3ccccc3c21 (centres undefined),5.78 µM (inactive),38.5 µM (inactive),34.6 µM (inactive),14 µM (inactive),8.26 µM (inactive),13.8 µM (inactive),22.9 µM (inactive),35.2 µM (inactive),17.3 µM (inactive),23.1 µM (inactive),25.8 µM (inactive),,14.4 µM (inactive),,,5.68 µM (inactive)
O=C1CCCCC1CN1CCCC1 (centres undefined),> 100 µM (inactive),> 100 µM (inactive),> 100 µM (inactive),65.6 µM (inactive),> 100 µM (inactive),,> 100 µM (inactive),> 100 µM (inactive),,> 100 µM (inactive),> 10 µM (inactive),0.178 µM (active),> 100 µM (inactive),> 100 µM (inactive),,
